From US12427210B2, “Compounds comprising a fibroblast activation protein ligand and use thereof” (priority 2019, dated 2025)

Columns and labels:
Matrix metalloprotease1 = target: T1, Matrix metalloprotease1 (Homo sapiens, UniProt P03956); settings: 1 μM
T1 sequence (P03956 100-469): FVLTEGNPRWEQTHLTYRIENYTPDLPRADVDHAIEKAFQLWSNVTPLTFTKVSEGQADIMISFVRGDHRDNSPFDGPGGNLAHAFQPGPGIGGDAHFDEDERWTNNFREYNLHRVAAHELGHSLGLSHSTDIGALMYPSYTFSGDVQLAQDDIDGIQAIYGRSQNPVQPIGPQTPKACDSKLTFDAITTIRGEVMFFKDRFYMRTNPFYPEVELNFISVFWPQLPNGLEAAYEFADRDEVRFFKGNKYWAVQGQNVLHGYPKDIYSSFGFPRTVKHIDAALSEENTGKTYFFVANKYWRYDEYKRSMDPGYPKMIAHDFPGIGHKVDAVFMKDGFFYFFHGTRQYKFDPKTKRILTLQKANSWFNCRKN

Matrix metalloprotease 2 = target: T2, Matrix metalloprotease 2 (Homo sapiens, UniProt P08253); settings: 100 nM
T2 sequence (P08253 110-660): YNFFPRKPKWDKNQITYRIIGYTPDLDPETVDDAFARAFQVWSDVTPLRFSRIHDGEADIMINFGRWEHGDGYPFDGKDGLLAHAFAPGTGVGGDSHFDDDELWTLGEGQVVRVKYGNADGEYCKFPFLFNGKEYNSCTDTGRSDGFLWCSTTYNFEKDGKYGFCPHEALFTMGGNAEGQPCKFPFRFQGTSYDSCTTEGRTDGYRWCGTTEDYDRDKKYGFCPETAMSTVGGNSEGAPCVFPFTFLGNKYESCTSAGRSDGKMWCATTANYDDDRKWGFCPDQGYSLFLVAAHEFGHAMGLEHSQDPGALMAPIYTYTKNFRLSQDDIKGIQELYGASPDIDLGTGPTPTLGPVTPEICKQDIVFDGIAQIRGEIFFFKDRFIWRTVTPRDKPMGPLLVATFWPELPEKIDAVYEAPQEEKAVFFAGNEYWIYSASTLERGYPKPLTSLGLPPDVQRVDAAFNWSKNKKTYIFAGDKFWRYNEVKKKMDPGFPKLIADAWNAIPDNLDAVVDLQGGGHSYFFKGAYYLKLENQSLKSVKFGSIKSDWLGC

[1] = target: T3, Matrix metalloprotease 9 (mutant Q279R) (Homo sapiens, UniProt P14780, Q279R); settings: 100 nM
T3 sequence (P14780 94-707 Q279R): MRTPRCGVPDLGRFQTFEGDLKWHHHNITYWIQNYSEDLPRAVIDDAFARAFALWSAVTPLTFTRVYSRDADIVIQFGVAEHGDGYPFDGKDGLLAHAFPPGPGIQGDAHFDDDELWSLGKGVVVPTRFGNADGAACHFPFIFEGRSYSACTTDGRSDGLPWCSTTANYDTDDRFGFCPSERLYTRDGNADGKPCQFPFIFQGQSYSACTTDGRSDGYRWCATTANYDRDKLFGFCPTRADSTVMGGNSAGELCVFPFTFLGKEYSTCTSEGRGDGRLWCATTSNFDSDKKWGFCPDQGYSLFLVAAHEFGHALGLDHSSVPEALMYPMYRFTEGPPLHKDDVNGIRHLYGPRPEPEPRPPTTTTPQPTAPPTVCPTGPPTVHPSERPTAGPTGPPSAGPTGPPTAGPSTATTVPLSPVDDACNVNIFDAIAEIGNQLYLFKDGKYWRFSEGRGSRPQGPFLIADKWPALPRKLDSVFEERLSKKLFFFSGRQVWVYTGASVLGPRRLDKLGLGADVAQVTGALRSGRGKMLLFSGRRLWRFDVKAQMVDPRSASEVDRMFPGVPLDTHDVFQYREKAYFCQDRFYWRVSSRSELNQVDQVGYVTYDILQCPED

SMILES: COc1ccc(S(=O)(=O)N(CC(=O)NO)CC(C)C)cc1 [NNGH]
- Percentage inhibition (%), Reference (Matrix metalloprotease1): 87%
- Percentage inhibition (%), Reference (Matrix metalloprotease 2): 95%
- Percentage inhibition (%), Reference [1]: 92%
